Measurements published in patent US9897592B2, “Methods for identifying arthropod repellents and attractants, and compounds and compositions identified by such methods” (The Regents of the University of California, priority 2013, dated 2018).

Key:
[1] = tested on: mammalian cation channels; details: cited from earlier work
[2] = biological target: human acetylcholinesterase (Homo sapiens, UniProt P22303); details: cited from earlier work
cpA neuron [3] = assay: Single-sensillum recording: activation of cpA neuron by odorants; type: cell-based, Aedes aegypti; details: for Activation (spikes s^−1): A. aegypti cpA, 0.5-s pulses, odorants 10^−2 in paraffin oil or water, solvent response subtracted
How it was run: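 Single-sensillum extracellular recordings from cp sensilla of adult female A. aegypti (Rockefeller), 3-12 days post-emergence. Odorants at 10^−2 in paraffin oil or water, 0.5-s pulses; solvent response subtracted, spikes counted; n=2-6, sensilla with <20 spikes s^−1 to negative control only.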

C. quinquefasciatus = assay: Semi-field two-choice greenhouse trapping; type: in vivo, Culex quinquefasciatus
Text: FIG. 4g is a schematic of two-choice greenhouse experiments with two counterflow geometry traps, in which mosquitoes were trapped overnight in odorant-baited and solvent (water)-baited traps.
Semi-field trapping: Two modified greenhouses at the Agricultural Experiment Station at the University of California, Riverside, were used as described previously^2, with modifications. Fifty laboratory-reared, mated, non-blood fed female C. quinquefasciatus aged 8-14 days and starved for 24 hrs were released each evening around 5 pm and traps collected at ˜7 am. Counter flow geometry traps baited with CO2 (250 ml min^−1, ˜670 mmol/hr) odorant were used as described^2, with modifications. Odorant solutions in water were dispensed from 20 cm long gauze wicks protruding from uncapped 50 ml tubes beneath the trap outflow. For each trial, one baited trap and one control trap (water-filled) were placed in each of two greenhouses (FIG. 4g). For two-choice CO2 trials, water was placed under both traps. For two-choice ethyl pyruvate trials, both traps expelled CO2, and one trap also released ethyl pyruvate from an open 2.8×7 cm glass vial. Since ethyl pyruvate has very low volatility pure compound was used to generate ˜1.7 mmol/hr. An empty vial was placed under control traps. Treatment position and trap were alternated across trials. Volume of solution lost from tubes containing 5%, 10%, or 20% cyclopentanone were measured after each trial and the average loss of molecules calculated respectively for 3 concentrations as (±s.d.) of 0.7 (±0.1), 1.7 (±0.4), and 3.8 (±0.3) mmol/hr, respectively. Preference index=(# mosquitoes in odor-baited trap−# mosquitoes in control trap)/(total # mosquitoes caught in both traps).
The efficacy of cyclopentanone as a lure was tested using traps in controlled semi-field experiments with C. quinquefasciatus, a mosquito present in Southern California, where the experiments took place. 50 female mosquitoes were released overnight in a modified greenhouse that contained two counter-flow geometry mosquito traps (FIG. 4g). One trap was baited with an evaporative lure of cyclopentanone diluted in water, and the second trap was baited with water alone.

cpA neuron [4] = assay: cpA dose response in C. quinquefasciatus; type: cell-based, Culex quinquefasciatus
Method: FIG. 4d is a graph illustrating the dose responses of the cpA neuron to cyclopentanone in A. aegypti and C. quinquefasciatus, where n=5-6.
Adult female A. aegypti (Linnaeus 1762) (Rockefeller strain) A. gambiae sensu stricto Giles 1902 (G3 strain), or C. quinquefasciatus Say 1823 were tested 3-12 days post-emergence with single-sensillum extracellular recordings. Chemicals were obtained from Sigma-Aldrich at the highest purity (typically >99%) and were dissolved in paraffin oil or water. […] Response to clean beads was subtracted from the results reported. Only sensilla with cpA activity of <20 spikes s^−1 to negative control were considered for analysis.
Taken together, the strong and conserved cpA response, promising safety and fragrance profile, and ability to mimic CO2 activation made cyclopentanone an excellent candidate for behavioural testing.

A. aegypti = assay: Hand-in-cage repellency assay; type: in vivo, Aedes aegypti; details: mesh treated 500 μl, 10% in acetone
Text: FIG. 4c depicts representative images (left) of hand-in-cage assay mesh window and a graph (right) illustrating the mean number of mosquitoes on the netting at the indicated time points for ethyl pyruvate-treated or solvent-treated netting. n=8 each.
Forty 4-10-day-old female A. aegypti were starved 24 hrs and released in a 30×30 cm cage with a glass top, and trials commenced between 1400 and 1700 hrs. A human hand wearing a nitrile glove (Sol-vex) with a 7×6 cm window covered by two layers of fine polyester mesh (BioQuip, mesh size 26×22 holes per in^2) held in place by magnetic spacers, was inserted into the cage. The lower mesh was 1.5 mm above, and upper mesh was 6 mm above the hand. While skin emanations passed freely through the mesh window, the hand was protected from contact with mosquitoes and treated mesh. The outside mesh was treated with ethyl pyruvate (500 μl, 10% in acetone) or solvent. After letting solvent evaporate the glove was assembled. […] Trials were video recorded and mosquitoes on the mesh were counted every 15 s.
An arm-in-cage repellency assay was used in this Example using gloves with chemical treated mesh-covered windows to quantify attraction of A. aegypti mosquitoes to the human hand without exposing the hand to mosquito bites or skin to contact with test chemicals.

cpA neuron [5] = assay: Inhibition screen: odorant overlaid on 0.15% CO2 stimulus, cpA response; type: cell-based, Aedes aegypti; details: overlaid on 0.15% CO2
Method: Percent inhibition was calculated by comparing mean odorant overlay responses to mean solvent overlay responses, and error bars are s.d.
CpA-off and sham treated mosquitoes were pre-treated for 3 min in an upended 1 L glass dish in which 100 μl of fresh butyryl chloride (1%) or paraffin oil was allowed to vaporize for 10-20 min. The odor delivery system for different screens is shown in FIG. 7b; solvent responses during the same recording session were subtracted. Inhibition screen was tested. For the ultra-prolonged activator the 3-s stimulus was delivered from a 10 ml disposable pipette using a CS-55 stimulus controller (Syntech), CO2 was delivered, and responses to subsequent odor stimuli were calculated by subtracting baseline activity 1 s prior to each stimulus. When responses to repeated pulses of cyclopentanone and CO2 were compared, baseline activity between seconds 5 and 6 following each stimulus was subtracted. Spike counting was done manually or with Igor Pro6.2 (Wavemetrics) with the Neuromatic v2.00 macro (by Jason Rothman), and peak-to-peak spike amplitudes for FIG. 8 were analysed in Clampfit 10.3 (Molecular Devices).

cpA neuron [6] = assay: Ethyl pyruvate overlaid on foot odor stimulus, cpA response; type: cell-based, Aedes aegypti; details: presented together, 1-s 10^−2 on 2-s foot odor
Text: FIG. 4b depicts representative trace and mean response when a 1-s stimulus of ethyl pyruvate (10^−2) is overlaid on a 2-s stimulus of foot odor (mixed beads from Person 1 and Person 2), where n=6.
The cpA inhibitor ethyl pyruvate was selected for testing since it is listed as a GRAS compound, is approved as a flavor agent in food, and has a pleasant smell (fruity, sweet, rum, caramel) (Table 3 above).

Sequence of human acetylcholinesterase (P22303 32-614): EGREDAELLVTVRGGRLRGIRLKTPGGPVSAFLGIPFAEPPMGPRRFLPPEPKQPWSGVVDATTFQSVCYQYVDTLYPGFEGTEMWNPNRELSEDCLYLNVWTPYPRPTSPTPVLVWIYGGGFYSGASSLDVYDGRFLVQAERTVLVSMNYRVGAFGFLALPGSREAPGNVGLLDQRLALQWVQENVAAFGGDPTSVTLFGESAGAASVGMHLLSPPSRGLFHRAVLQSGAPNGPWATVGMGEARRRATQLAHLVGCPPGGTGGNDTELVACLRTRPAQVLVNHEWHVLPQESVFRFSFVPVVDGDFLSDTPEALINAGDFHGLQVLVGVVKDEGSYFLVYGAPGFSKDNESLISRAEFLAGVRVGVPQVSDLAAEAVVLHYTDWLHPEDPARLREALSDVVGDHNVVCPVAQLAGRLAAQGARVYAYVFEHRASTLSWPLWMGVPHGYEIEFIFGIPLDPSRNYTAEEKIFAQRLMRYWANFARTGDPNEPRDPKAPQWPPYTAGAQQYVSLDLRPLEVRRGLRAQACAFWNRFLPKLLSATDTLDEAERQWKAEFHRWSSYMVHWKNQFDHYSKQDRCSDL

SMILES | inhibition of mammalian cation channels [1] | inhibition of human acetylcholinesterase [2] | Activation (spikes s^−1) (cpA neuron [3]) | cpA activation (cpA neuron [3]; A. aegypti dose response) | fold fewer molecules released than CO2 for comparable catch rate (C. quinquefasciatus; calculated from amount evaporated) [fold] | trap preference, odorant-baited vs solvent-baited trap (C. quinquefasciatus; evaporative lure in water, overnight) | capture numbers relative to CO2-baited traps (C. quinquefasciatus; similar trials in parallel) | cpA activation (cpA neuron [4]) | number of times mosquitoes landed on mesh over human hand (A. aegypti) | catch of CO2-baited trap also dispensing odorant vs control CO2-baited trap (C. quinquefasciatus; pure compound, ~1.7 mmol/hr) | inhibition of cpA activity (cpA neuron [5]) | response of cpA neuron to human foot odor (cpA neuron [6])
CCN(CC)C(=O)c1cccc(C)c1 [DEET, N,N-Diethyl-m-toluamide] | inhibit | inhibit | – | – | – | – | – | – | – | – | – | –
O=C1CCCC1 [Cyclopentanone] | – | – | 120.1 | strong activator | ~176 | preferred cyclopentanone over solvent-baited traps in a dose-dependent manner | comparable | strong activator | – | – | – | –
CCOC(=O)C(C)=O [ethyl 2-oxopropanoate] | – | – | −63.0 | – | – | – | – | – | substantially reduced | significantly fewer mosquitoes | strongly inhibited | completely eliminates
